Assay results as given in patent US20080249035A1, “Polymorph of Clarithromycin (Form V)” (Gruenenthal GmbH, priority 2007, published 2008).

Assay: Interconversion tests in acetone (thermodynamic/physical stability of polymorphic forms)
Type: physicochemical
Procedure: To investigate physical stability in comparison with the known forms form I and form II, the following experiments were carried out (interconversion tests): • a) about 100 mg of form I and approx. 100 mg of form II were put in a 20 ml vial and suspended in 2.5 ml acetone p.a. • b) about 100 mg of form V and approx. 100 mg of form I were put in a 20 ml vial and suspended in 2.5 ml acetone p.a. • c) about 100 mg of form V and approx. 100 mg of form II were put in a 20 ml vial and suspended in 2.5 ml acetone p.a.
All three suspensions were first shaken at room temperature (approx. 20° C.) on a PLS synthesizer at 400 rpm for approx. 2 h. For 20 h the temperature of the suspensions was raised to 40° C. and then left to cool to room temperature (approx. 20° C.) again.
Then the solids were filtered with suction on a G4 frit, made into a slurry with 0.5 ml acetone p.a., washed, and then dried by suction in an air stream, applying a light vacuum.
The crystalline solids were in each case characterized by DSC, XRPD, Raman and TG investigations.

SMILES: CC[C@H]1OC(=O)[C@H](C)[C@@H](O[C@H]2C[C@@](C)(OC)[C@@H](O)[C@H](C)O2)[C@H](C)[C@@H](O[C@@H]2O[C@H](C)C[C@H](N(C)C)[C@H]2O)[C@](C)(OC)C[C@@H](C)C(=O)[C@H](C)[C@@H](O)[C@]1(C)O [Form I/Form II, clarithromycin]
- Product (polymorphic form obtained from the starting mixture in the interconversion test) (approx. 100 mg of each form suspended in 2.5 ml acetone, approx. 2 h at room temperature (approx. 20° C.), 20 h at 40° C., cooled to room temperature, solids characterized by DSC, XRPD, Raman, TG): Form II

SMILES: CC[C@H]1OC(=O)[C@H](C)[C@@H](O[C@H]2C[C@@](C)(OC)[C@@H](O)[C@H](C)O2)[C@H](C)[C@@H](O[C@@H]2O[C@H](C)C[C@H](N(C)C)[C@H]2O)[C@](C)(OC)C[C@@H](C)C(=O)[C@H](C)[C@@H](O)[C@]1(C)O [Form II, clarithromycin]
- Relative thermodynamic stability of the forms under the test conditions (interconversion tests in acetone, 20 to 40° C.): thermodynamically more stable than form V as well as more stable than form I
